# PubChem BioAssay AID248 (DTP/NCI, 2004)
# Where “and” joins values, the source holds several entries; their conditions need not be identical. Equal values may be shown once. Toxic doses and inconclusive results are not listed.
# Tested on: L1210 leukemia ip in BDF1 mice, survival T/C
# Assay: NCI In Vivo Anticancer Drug Screen. Data for tumor model L1210 Leukemia (intraperitoneal) in B6D2F1 (BDF1) mice
# Conditions: endpoint: mean survival time, higher = longer survival
# Procedure, shortened: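 Mice bearing the transplanted tumor received compound or vehicle. Survival of the treated group was divided by that of the vehicle-treated control group to give the ratio.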
# [1] = dose: 100.0 mg/kg/injection, schedule: Q01DX001 (ip), vehicle: carboxymethylcellulose (CMC)
# [2] = dose: 200.0 mg/kg/injection, schedule: Q01DX001 (ip), vehicle: carboxymethylcellulose (CMC)
# [3] = dose: 400.0 mg/kg/injection, schedule: Q01DX001 (ip), vehicle: carboxymethylcellulose (CMC)
# [4] = dose: 100.0 mg/kg/injection, schedule: Q01DX009 (ip), vehicle: saline with Tween-80
# [5] = dose: 200.0 mg/kg/injection, schedule: Q01DX009 (ip), vehicle: saline with Tween-80
# [6] = dose: 400.0 mg/kg/injection, schedule: Q01DX009 (ip), vehicle: saline with Tween-80
# [7] = dose: 100.0 mg/kg/injection, schedule: Q04DX003 (ip), vehicle: Klucel (hydroxypropylcellulose) (HPC)
# [8] = dose: 200.0 mg/kg/injection, schedule: Q01DX009 (ip), vehicle: Klucel (hydroxypropylcellulose) (HPC)
# [9] = dose: 200.0 mg/kg/injection, schedule: Q04DX003 (ip), vehicle: Klucel (hydroxypropylcellulose) (HPC)
# [10] = dose: 400.0 mg/kg/injection, schedule: Q04DX003 (ip), vehicle: Klucel (hydroxypropylcellulose) (HPC)
# [11] = dose: 100.0 mg/kg/injection, schedule: Q01DX009 (ip), vehicle: Klucel (hydroxypropylcellulose) (HPC)
# [12] = dose: 400.0 mg/kg/injection, schedule: Q01DX009 (ip), vehicle: Klucel (hydroxypropylcellulose) (HPC)
# [13] = dose: 50.0 mg/kg/injection, schedule: Q04DX003 (ip), vehicle: saline with Tween-80
# [14] = dose: 100.0 mg/kg/injection, schedule: Q04DX003 (ip), vehicle: saline with Tween-80
# [15] = dose: 200.0 mg/kg/injection, schedule: Q04DX003 (ip), vehicle: saline with Tween-80
# [16] = dose: 400.0 mg/kg/injection, schedule: Q04DX003 (ip), vehicle: saline with Tween-80
# [17] = dose: 50.0 mg/kg/injection, schedule: Q01DX001 (ip), vehicle: carboxymethylcellulose (CMC)
structure (smiles),measurement,setting,value
Nc1cc(Br)cc2[nH]c(=O)c3cc(Br)ccc3c12,T/C,[1],100 % of control
same,T/C,[2],100 % of control
same,T/C,[3],102 % of control
CCCCCCCCCCCCC1C2CCCCC2CC2CCCCC21 (configuration not stated),T/C,"dose: 100.0 mg/kg/injection, schedule: Q01DX001 (ip), vehicle: saline with Tween-80",94 % of control
same,T/C,"dose: 200.0 mg/kg/injection, schedule: Q01DX001 (ip), vehicle: saline with Tween-80",94 % of control
same,T/C,"dose: 400.0 mg/kg/injection, schedule: Q01DX001 (ip), vehicle: saline with Tween-80",96 % of control
CSc1ccc(NC(=O)Nc2ccc(NC(C)=O)cc2)cc1,T/C,[4],97 % of control
same,T/C,[5],98 % of control
same,T/C,[6],97 % of control
Nc1nc(SCCc2ccccc2)c2[nH]cnc2n1,T/C,"dose: 125.0 mg/kg/injection, schedule: Q01DX Z (ip), vehicle: carboxymethylcellulose (CMC)",97 % of control
same,T/C,"dose: 200.0 mg/kg/injection, schedule: Q01DX Z (ip), vehicle: carboxymethylcellulose (CMC)",123 % of control
same,T/C,"dose: 250.0 mg/kg/injection, schedule: Q01DX Z (ip), vehicle: carboxymethylcellulose (CMC)",100 % of control
same,T/C,"dose: 500.0 mg/kg/injection, schedule: Q01DX Z (ip), vehicle: carboxymethylcellulose (CMC)",106 % of control
same,T/C,"dose: 1000.0 mg/kg/injection, schedule: Q01DX Z (ip), vehicle: carboxymethylcellulose (CMC)",93 % of control
OC1CCSC1 (configuration not stated),T/C,"dose: 50.0 mg/kg/injection, schedule: Q01DX009 (ip), vehicle: saline",95 % of control
same,T/C,"dose: 100.0 mg/kg/injection, schedule: Q01DX009 (ip), vehicle: saline",95 % of control
same,T/C,"dose: 200.0 mg/kg/injection, schedule: Q01DX009 (ip), vehicle: saline",98 % of control
Cn1cnc([N+](=O)[O-])c1SC#N,T/C,"dose: 15.0 mg/kg/injection, schedule: Q01DX001 (ip), vehicle: carboxymethylcellulose (CMC)",100 % of control
CC(C)(Oc1ccc(Cl)cc1)C(=O)O (tested in a mixture with another compound),T/C,"dose: 100.0 mg/kg/injection, schedule: Q04DX003 (ip), vehicle: saline",94 % of control
same,T/C,"dose: 200.0 mg/kg/injection, schedule: Q04DX003 (ip), vehicle: saline",91 % of control
same,T/C,"dose: 400.0 mg/kg/injection, schedule: Q04DX003 (ip), vehicle: saline",91 % of control
CC1(C)N=C(N)N=C(N)N1c1ccc(OCc2ccc(C(=O)Nc3cccc(S(=O)(=O)F)c3)cc2)c(Cl)c1,T/C,"dose: 25.0 mg/kg/injection, schedule: Q01DX009 (ip), vehicle: Klucel (hydroxypropylcellulose) (HPC)",100 % of control
same,T/C,[7],124 % of control
same,T/C,[8],86 % of control
same,T/C,[9],162 % of control and 168 % of control
same,T/C,[10],105 % of control and 106 % of control and 116 % of control
CC(C)(C)C1=NN=C(C(C)(C)C)CSC1,T/C,[11],95 % of control and 100 % of control
same,T/C,"dose: 100.0 mg/kg/injection, schedule: Q04DX002 (ip), vehicle: Klucel (hydroxypropylcellulose) (HPC)",98 % of control and 103 % of control
same,T/C,[7],101 % of control
same,T/C,[8],101 % of control and 113 % of control
same,T/C,"dose: 200.0 mg/kg/injection, schedule: Q04DX002 (ip), vehicle: Klucel (hydroxypropylcellulose) (HPC)",103 % of control and 105 % of control
same,T/C,[9],97 % of control
same,T/C,[12],101 % of control and 92 % of control
same,T/C,"dose: 400.0 mg/kg/injection, schedule: Q04DX002 (ip), vehicle: Klucel (hydroxypropylcellulose) (HPC)",98 % of control and 105 % of control
same,T/C,[10],95 % of control
COc1ccc2c(c1)c1c(C)c3cnccc3c(C)c1n2CCCN1C(=O)c2ccccc2C1=O,T/C,[13],94 % of control
same,T/C,[4],96 % of control
same,T/C,[14],92 % of control
same,T/C,[5],101 % of control
same,T/C,[15],93 % of control
same,T/C,"dose: 400.0 mg/kg/injection, schedule: Q01DX001 (oral), vehicle: saline with Tween-80",110 % of control
same,T/C,[6],101 % of control
same,T/C,[16],94 % of control
same,T/C,"dose: 800.0 mg/kg/injection, schedule: Q01DX001 (oral), vehicle: saline with Tween-80",108 % of control
same,T/C,"dose: 1600.0 mg/kg/injection, schedule: Q01DX001 (oral), vehicle: saline with Tween-80",112 % of control
CNC(=O)C1=Cc2cc(Cl)ccc2OC1,T/C,"dose: 75.0 mg/kg/injection, schedule: Q04DX003 (ip), vehicle: saline with Tween-80",98 % of control
same,T/C,"dose: 150.0 mg/kg/injection, schedule: Q04DX003 (ip), vehicle: saline with Tween-80",92 % of control
same,T/C,"dose: 300.0 mg/kg/injection, schedule: Q04DX003 (ip), vehicle: saline with Tween-80",95 % of control
Cc1ccc(S(=O)(=O)c2ccc(C)cc2)cc1,T/C,[17],96 % of control
same,T/C,[1],111 % of control
same,T/C,[2],100 % of control
same,T/C,[3],105 % of control
CCC(C)(O)C#CC#CC(C)(O)CC (configuration not stated),T/C,"dose: 6.25 mg/kg/injection, schedule: Q01DX009 (ip), vehicle: saline with Tween-80",93 % of control
same,T/C,"dose: 12.5 mg/kg/injection, schedule: Q01DX009 (ip), vehicle: saline with Tween-80",100 % of control
same,T/C,"dose: 12.5 mg/kg/injection, schedule: Q04DX003 (ip), vehicle: saline with Tween-80",101 % of control
same,T/C,"dose: 25.0 mg/kg/injection, schedule: Q01DX009 (ip), vehicle: saline with Tween-80",96 % of control
same,T/C,"dose: 25.0 mg/kg/injection, schedule: Q04DX003 (ip), vehicle: saline with Tween-80",97 % of control
same,T/C,[13],87 % of control
same,T/C,[11],93 % of control
same,T/C,[7],103 % of control
same,T/C,[8],101 % of control
same,T/C,[9],106 % of control
same,T/C,[12],102 % of control
same,T/C,[10],104 % of control
COc1c2c(c(OC)c3c1C(=O)c1ccccc1C3=O)CC(C(C)=O)CC2 (configuration not stated),T/C,[14],94 % of control
same,T/C,[15],92 % of control
same,T/C,[16],92 % of control
Nc1ccc2ccc3ccc4ccccc4c3c2c1,T/C,"dose: 100.0 mg/kg/injection, schedule: Q01DX001 (ip), vehicle: Klucel (hydroxypropylcellulose) (HPC)",97 % of control
same,T/C,[7],104 % of control
same,T/C,"dose: 200.0 mg/kg/injection, schedule: Q01DX001 (ip), vehicle: Klucel (hydroxypropylcellulose) (HPC)",103 % of control
same,T/C,[9],113 % of control
same,T/C,"dose: 400.0 mg/kg/injection, schedule: Q01DX001 (ip), vehicle: Klucel (hydroxypropylcellulose) (HPC)",100 % of control
same,T/C,[10],90 % of control
NS(=O)(=O)c1ncnc2nc[nH]c12,T/C,"dose: 5.0 mg/kg/injection, schedule: Q01DX Z (ip), vehicle: methylcellulose (MC)",108 % of control
same,T/C,"dose: 10.0 mg/kg/injection, schedule: Q01DX Z (ip), vehicle: methylcellulose (MC)",109 % of control
same,T/C,"dose: 22.0 mg/kg/injection, schedule: Q01DX001 (ip), vehicle: carboxymethylcellulose (CMC)",109 % of control and 117 % of control
same,T/C,"dose: 22.0 mg/kg/injection, schedule: Q01DX Z (ip), vehicle: carboxymethylcellulose (CMC)",124 % of control
same,T/C,"dose: 24.75 mg/kg/injection, schedule: Q01DX009 (ip), vehicle: saline",121 % of control
same,T/C,"dose: 25.0 mg/kg/injection, schedule: Q04DX003 (ip), vehicle: saline",117 % of control
same,T/C,"dose: 30.0 mg/kg/injection, schedule: Q04DX003 (ip), vehicle: saline",121 % of control
same,T/C,"dose: 33.0 mg/kg/injection, schedule: Q01DX001 (ip), vehicle: carboxymethylcellulose (CMC)",107 % of control and 109 % of control
same,T/C,"dose: 33.0 mg/kg/injection, schedule: Q01DX Z (ip), vehicle: carboxymethylcellulose (CMC)",120 % of control
same,T/C,"dose: 37.5 mg/kg/injection, schedule: Q01DX009 (ip), vehicle: saline",119 % of control
same,T/C,[17],114 % of control and 119 % of control
same,T/C,"dose: 50.0 mg/kg/injection, schedule: Q04DX003 (ip), vehicle: saline",120 % of control
same,T/C,"dose: 66.0 mg/kg/injection, schedule: Q04DX003 (ip), vehicle: saline",114 % of control
same,T/C,"dose: 75.0 mg/kg/injection, schedule: Q01DX001 (ip), vehicle: carboxymethylcellulose (CMC)",117 % of control
same,T/C,"dose: 75.0 mg/kg/injection, schedule: Q01DX009 (ip), vehicle: saline with Tween-80",101 % of control
same,T/C,"dose: 75.0 mg/kg/injection, schedule: Q01DX Z (ip), vehicle: carboxymethylcellulose (CMC)",152 % of control and 159 % of control and 165 % of control
same,T/C,"dose: 100.0 mg/kg/injection, schedule: Q01DX001 (ip), vehicle: saline",115 % of control
same,T/C,"dose: 114.0 mg/kg/injection, schedule: Q01DX Z (ip), vehicle: carboxymethylcellulose (CMC)",93 % of control
same,T/C,"dose: 200.0 mg/kg/injection, schedule: Q01DX Z (ip), vehicle: methylcellulose (MC)",113 % of control
